Laboratory results from BindingDB's records for doi:10.1016/S0960-894X(97)10080-4 (1997).

Experiment: Tested for functional activity against neuronal nicotinic acetylcholine receptor(nAChR) expressed in K177 cells using isotopic rubidium efflux assay.

Compound `c1cnc2cc([C@@H]3CCCN3)oc2c1` [(S)-2-Pyrrolidin-2-yl-furo[3,2-b]pyridine] has an EC50 of over 1000 µM.
